This note sets out measurements from patent EP3808411A1, “COSMETIC COMPOSITIONS AND USE THEREOF” (Mesoestetic Pharma Group, S.L., priority 2019, dated 2020).

“Also recorded” adds a separate entry of the source.

The subject of one experiment is human dermal fibroblasts. Nature of the experiment: β-galactosidase staining in a model of UVB-induced senescence. The format is cell-based. How it is done: (§1) In order to verify the action of the shikimic acid as a protector against the process of cellular senescence induced by Ultraviolet Type-B (UVB) damage, the shikimic acid was tested in a model of UVB-induced senescence in human dermal fibroblasts. In this model, two days after being plated, the cells are irradiated with UVB. After three days, the cells are re-irradiated with UVB. Two days after the second irradiation, the cells are processed for analysis. The shikimic acid is incubated with the cells from 24 h before the first irradiation until the day they are analysed. To assess whether cells are senescent or not, two markers are used. On the one hand, β-galactosidase staining is carried out, which stains the senescent cells blue, since they have an abnormal lysosomal activity at pH 6. Furthermore, the expression of the HAS2 gene is quantified by means of the qPCR technique.

Another experiment deals with HAS2 gene. Nature of the experiment: HAS2 gene expression by qPCR in a model of UVB-induced senescence. The format is cell-based, human. How it is done:
as §1
A general note: Real-time PCR tracks product formation cycle by cycle.

On to `N#CC(=Cc1ccc(-c2cc(Cl)ccc2Cl)o1)C(=O)Nc1cccc2ncccc12` [AGK2], for which the “effect of inhibitor on the protective role of shikimic acid on senescence” value with human dermal fibroblasts (UVB-irradiated cells, 10, 25, 50 mM shikimic acid + AGK2 2 µM, Figures 5 and 6) is “do not reverse the protective effect of shikimic acid on senescence”.
As to `NC(=O)C1CCCc2c1[nH]c1ccc(Cl)cc21` (centres unmarked) [EX-527], the “HAS2 gene expression with shikimic acid + inhibitor” value in the experiment on HAS2 gene (UVB-irradiated cells, shikimic acid (SX) + EX-527 1 µM versus SX only, Figure 4) is listed as “reversed to a lesser extent”. For the same compound, in the experiment on human dermal fibroblasts (UVB-irradiated cells, 10, 25, 50 mM shikimic acid + EX-527 1 µM, Figure 3), the “effect of inhibitor on the protective role of shikimic acid on senescence (β-galactosidase staining)” value is “capable of reversing the effect of shikimic acid on senescence”.
Turning to `O=C(Nc1ccc(O)c(C(=O)O)c1)c1cccc(NC(=O)c2ccco2)c1` [OSS128167], the “effect of inhibitor on the protective role of shikimic acid on senescence” value in the experiment with human dermal fibroblasts (UVB-irradiated cells, 10, 25, 50 mM shikimic acid + OSS128167 200 µM, Figures 7 and 8) is “do not reverse the protective effect of shikimic acid on senescence”.
In the case of `COC1=C(OC)C(=O)C(CCCCCCCCCCO)=C(C)C1=O` [idebenone], the “protection against UVB damage-induced senescence (β-galactosidase staining)” value in the experiment on human dermal fibroblasts (UVB-irradiated cells treated with 2.5, 5, 10 µM idebenone, Figure 9) is “neither of these two comparative compounds is capable of protecting against UVB damage-induced senescence”.
In the case of `O=C(O)CCCCC1CCSS1` (centres unmarked) [lipoic acid], in the experiment with human dermal fibroblasts (UVB-irradiated cells treated with 50, 100, 200 µM lipoic acid, Figure 10), the “protection against UVB damage-induced senescence (β-galactosidase staining)” value is recorded as “neither of these two comparative compounds is capable of protecting against UVB damage-induced senescence”.
Consider `O=C(O)C1=CC(O)C(O)C(O)C1` (centres unmarked) [shikimic acid, 3,4,5-trihydroxy-1-cyclohexene-1-carboxylic acid], for which the HAS2 gene expression result in the experiment with HAS2 gene (UVB-irradiated human dermal fibroblasts treated with 10, 25, 50 mM shikimic acid, Figure 2) is given as “this decrease is reversed in gene expression”. The “senescent cells (β-galactosidase staining)” value with human dermal fibroblasts (UVB-irradiated human dermal fibroblasts treated with 10, 25, 50 mM shikimic acid, Figure 1) was “this increase in senescence does not occur; also recorded: more effective than other compounds such as idebenone or lipoic acid”.
